# According to patent US9493441B2, “Acyclic cyanoethylpyrazoles as janus kinase inhibitors” (Merck Sharp & Dohme Corp., priority 2011, dated 2016):
# Like-named read-outs stand apart in the source and are kept apart here.
# Columns and labels:
# [1] = target: JAK2 (Homo sapiens (Human), UniProt O60674); test: Jak biochemical HTRF assay, JAK2
# [2] = target: JAK1 (Homo sapiens (Human), UniProt P23458); test: Jak biochemical HTRF assay, JAK1
# [3] = JAK2 IC50 (nM), recombinant GST-tagged catalytic domain, [ATP] […]
# [4] = JAK1 IC50 (nM), recombinant GST-tagged catalytic domain, [ATP] 31.8 μM
# [5] = read-out: JAK2 IC50, recombinant GST-tagged catalytic domain, [ATP] […]
# [6] = read-out: JAK1 IC50, recombinant GST-tagged catalytic domain, [ATP] 31.8 μM
# Sequence of JAK1 (P23458 875-1153): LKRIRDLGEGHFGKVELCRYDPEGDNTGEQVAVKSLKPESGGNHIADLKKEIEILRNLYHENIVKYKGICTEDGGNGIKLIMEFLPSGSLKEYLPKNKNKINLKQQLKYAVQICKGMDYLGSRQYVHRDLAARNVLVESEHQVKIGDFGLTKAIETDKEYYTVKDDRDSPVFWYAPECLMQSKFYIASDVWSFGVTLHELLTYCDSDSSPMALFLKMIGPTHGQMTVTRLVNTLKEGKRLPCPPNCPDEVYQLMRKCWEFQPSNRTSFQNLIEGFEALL
# Sequence of JAK2 (O60674 849-1124): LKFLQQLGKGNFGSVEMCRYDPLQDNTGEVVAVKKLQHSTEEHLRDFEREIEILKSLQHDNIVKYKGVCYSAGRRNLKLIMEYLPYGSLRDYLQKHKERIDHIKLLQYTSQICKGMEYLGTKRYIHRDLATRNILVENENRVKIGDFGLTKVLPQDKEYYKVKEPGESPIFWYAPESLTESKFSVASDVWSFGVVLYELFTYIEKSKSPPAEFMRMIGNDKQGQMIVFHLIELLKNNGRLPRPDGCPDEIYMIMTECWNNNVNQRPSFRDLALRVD
SMILES,"IC50 [1, 3] [nM]","IC50 [2, 4] [nM]","IC50 [1, 5] [nM]","IC50 [2, 6] [nM]"
"CC(C)(C)OC(=O)CN1Cc2cc(Nc3nn(C(CC#N)C4CC4)cc3C(N)=O)ccc2C1=O (stereo not drawn) [Example 4-34, tert-butyl (5-{[4-carbamoyl-1-(2-cyano-1-cyclopropylethyl)-1H-pyrazol-3-yl]amino}-1-oxo-1,3-dihydro-2H-isoindol-2-yl)acetate]",20,2,–,–
"CS(=O)(=O)c1ccc(Nc2nn(C(CC#N)C3CC3)cc2C(N)=O)cc1 (stereo not drawn) [Example 4-1, 1-(2-Cyano-1-cyclopropylethyl)-3-{[4-(methylsulfonyl)phenyl]amino}-1H-pyrazole-4-carboxamide]",28,3,–,–
"Cc1noc(-c2ccc(Nc3nn([C@H](CC#N)C4CC4)cc3C(N)=O)cc2)n1 (single isomer, unassigned) [Example 18-1, 1-[(1R or 1S)-2-cyano-1-cyclopropylethyl]-3-{[4-(3-methyl-1,2,4-oxadiazol-5-yl)phenyl]amino}-1H-pyrazole-4-carboxamide]",–,–,19,2
"CC(C)(CC#N)n1cc(C(N)=O)c(Nc2ccccc2)n1 [Example 1-21, 1-(2-cyano-1,1-dimethylethyl)-3-(phenylamino)-1H-pyrazole-4-carboxamide]",103,12,–,–
"CC(C)COC(=O)N1CCC([C@H](CC#N)n2cc(C(N)=O)c(Nc3ccc(F)cc3)n2)CC1 (single isomer, unassigned) [Example 12-3, 2-methylpropyl 4-[(1S or 1R)-1-{4-carbamoyl-3-[(4-fluorophenyl)amino]-1H-pyrazol-1-yl}-2-cyanoethyl]piperidine-1-carboxylate]",1500,245,–,–
"N#CCC(C1CCC1)n1cc(C(N)=O)c(Nc2ccccc2)n1 (stereo not drawn) [Example 1-19, 1-(2-cyano-1-cydobutylethyl)-3-(phenylamino)-1H-pyrazole-4-carboxamide]",272,31,–,–
"CCOC(=O)N1CCC([C@H](CC#N)n2cc(C(N)=O)c(Nc3ccc(F)cc3)n2)CC1 (single isomer, unassigned) [Example 12-4, ethyl 4-[(1S or 1R)-1-{4-carbamoyl-3-[(4-fluorophenyl)amino]-1H-pyrazol-1-yl}-2-cyanoethyl]piperidine-1-carboxylate]",1050,44,–,–
"C[C@@H](CC#N)n1cc(C(N)=O)c(Nc2ccccc2)n1 (single isomer, unassigned) [Example 17-1, 1-[(2S or 2R)-1-cyanopropan-2-yl]-3-(phenylamino)-1H-pyrazole-4-carboxamide]",–,–,1130,224
"N#CCC(CC1CCOCC1)n1cc(C(N)=O)c(Nc2ccccc2)n1 (stereo not drawn) [Example 1-10, 1-[2-cyano-1-(tetrahydro-2H-pyran-4-ylmethyl)ethyl]-3-(phenylamino)-1H-pyrazole-4-carboxamide]",1480,289,–,–
"C[C@H](C#N)[C@H](C)n1cc(C(N)=O)c(Nc2ccccc2)n1 (mixture of isomers) [Example 1-22, 1-((2S, 3S and 2R, 2R)-3-cyclobutan-2-yl)-3-(phenylamino)-1H-pyrazole-4-carboxamide]",198,32,–,–
"CC(CC#N)(C1CC1)n1cc(C(N)=O)c(Nc2ccccc2)n1 (stereo not drawn) [Example 1-18, 1-(2-cyano-1-cyclopropyl-1-methylethyl)-3-(phenylamino)-1H-pyrazole-4-carboxamide]",413,195,–,–
"N#CCC(C1CC1)n1cc(C(N)=O)c(Nc2ccc(-c3cnco3)cc2)n1 (stereo not drawn) [Example 4-24, 1-(2-cyano-1-cyclopropylethyl)-3-{[4-(1,3-oxazol-5-yl)phenyl]amino}-1H-pyrazole-4-carboxamide]",262,41,–,–
"CC(C)(O)c1cn(Cc2cccc(Nc3nn(C(CC#N)C4CCCC4)cc3C(N)=O)c2)nn1 (stereo not drawn) [Example 1-8, 1-(2-cyano-1-cyclopentylethyl)-3-[(3-{[4-(1-hydroxy-1-methylethyl)-1H-1,2,3-triazol-1-yl]methyl}phenyl)amino]-1H-pyrazole-4-carboxamide]",999,194,–,–
"N#CCC(C1CC1)n1cc(C(N)=O)c(Nc2ccc(S(=O)(=O)C(F)(F)F)cc2)n1 (stereo not drawn) [Example 4-28, 1-(2-cyano-1-cyclopropylethyl)-3-({4-[(trifluoromethyl)sulfonyl]phenyl}amino)-1H-pyrazole-4-carboxamide]",75,11,–,–
"CC(C)(C)OC(=O)N1CCC(F)(C(CC#N)n2cc(C(N)=O)c(Nc3ccccc3)n2)CC1 (stereo not drawn) [Example 3-2, tert-butyl 4-{1-[4-carbamoyl-3-(phenylamino)-1H-pyrazol-1-yl]-2-cyanoethyl}-4-fluoropiperidine-1-carboxylate]",1500,99,–,–
"CN1Cc2cc(Nc3nn(C(CC#N)C4CC4)cc3C(N)=O)ccc2C1=O (stereo not drawn) [Example 4-33, 1-(2-cyano-1-cyclopropylethyl)-3-[(2-methyl-1-oxo-2,3-dihydro-1H-isoindol-5-yl)amino]-1H-pyrazole-4-carboxamide]",23,1,–,–
"N#CCC(C1CCOC1)n1cc(C(N)=O)c(Nc2ccccc2)n1 (stereo not drawn) [Example 1-14, 1-[2-cyano-1-(tetrahydrofuran-3-yl)ethyl]-3-(phenylamino)-1H-pyrazole-4-carboxamide]",1400,126,–,–
CC(C)(C)CC(CC#N)n1cc(C(N)=O)c(Nc2ccccc2)n1 (stereo not drawn) [Example 1-13],1480,598,–,–
"CC(C)(C)OC(=O)N1CCC(C(C)(CC#N)n2cc(C(N)=O)c(Nc3ccccc3)n2)CC1 (stereo not drawn) [Example 3-3, tert-butyl 4-{2-[4-carbamoyl-3-(phenylamino)-1H-pyrazol-1-yl]-1-cyanopropan-2-yl}piperidine-1-carboxylate]",236,5,–,–
"N#CCC(C1CCCC1)n1cc(C(N)=O)c(Nc2ccccc2)n1 (single isomer, unassigned) [Example 16-4, 1-[(1S or 1R)-2-cyano-1-cyclopentylethyl]-3-(phenylamino)-1H-pyrazole-4-carboxamide]",567,141,–,–
"N#CCC(C1CC1)n1cc(C(N)=O)c(Nc2ccnc(F)c2)n1 (stereo not drawn) [Example 4-37, 1-(2-cyano-1-cyclopropylethyl)-3-[(2-fluoropyridin-4-yl)amino]-1H-pyrazole-4-carboxamide]",44,5,–,–
"COC(=O)N1CCC(C(CC#N)n2cc(C(N)=O)c(Nc3ccc(F)cc3)n2)CC1 (stereo not drawn) [Example 11-2, methyl 4-(1-{4-carbamoyl-3-[(4-fluorophenyl)amino]-1H-pyrazol-1-yl}-2-cyanoethyl)piperidine-1-carboxylate]",890,55,–,–
"Cc1noc(-c2ccc(Nc3nn(C(CC#N)C4CC4)cc3C(N)=O)cc2)n1 (stereo not drawn) [Example 4-36, 1-(2-cyano-1-cyclopropylethyl)-3-{[4-(3-methyl-1,2,4-oxadiazol-5-yl)phenyl]amino}-1H-pyrazole-4-carboxamide]",39,5,–,–
"CC(OC(=O)N1CCC([C@H](CC#N)n2cc(C(N)=O)c(Nc3ccc(F)cc3)n2)CC1)C(F)(F)F (stereo partly drawn) [Example 11-11, 2,2,2-trifluoro-1-methylethyl 4-[(1S)-1-{4-carbamoyl-3-[(4-fluorophenyl)amino]-1H-pyrazol-1-yl}-2-cyanoethyl]piperidine-1-carboxylate]",1040,46,–,–
